Measured values: patent publication EP0428272A2, “Trifluorobenzodiazepine compounds for use in therapy by intraoral administration” (Ellinwood, Everett Hews, priority 1989, dated 1991)
Where two headings read alike, the source gives them in different places.

Columns and labels:
[1] = Pharmacokinetics in blood plasma after a single sublingual or per oral swallowed dose of quazepam 15 mg standard tablet; assay type: in vivo, volunteer adult humans; settings: for half-life / Tmax / Cmax / AUC: human; for half-life: plasma, 15 mg; for half-life / Tmax / Cmax / AUC / CL/F / Lag time: mean ± SD; for Tmax: time to Cmax; for Cmax: quazepam peak plasma concentration; for AUC: quazepam, area under plasma concentration-time curve; for CL/F: quazepam clearance
Protocol: Test results will now be described. Testing was carried out using volunteer adult humans. Standard tablets containing, as active ingredient, solely quazepam or solely halazepam, were used. Such tablets were intended by their manufacturers to be swallowed but dissolved adequately in the mouth to permit the intraoral testing. • Figure 1 is a graph illustrating the concentration of quazepam (Q) and N-desalkyl-2-oxoquazepam (DOQ) in the blood plasma over 96 hours following a single sublingual dose (SL) or per oral swallowed dose (PO) of quazepam in a 15 mg standard tablet. • Figure 2 is a graph illustrating the concentration of quazepam (Q) and N-desalkyl-2-oxoquazepam (DOQ) in the blood plasma over 210 hours following a single sublingual dose (SL) or per oral swallowed dose (PO) of quazepam in a 15 mg standard tablet. • Figure 3 is a graph of computer simulated concentration levels of quazepam and N-desalkyl-2-oxoquazepam in the blood following sublingual and oral swallowed doses of quazepam (15 mg standard tablet) once a day for a 15 day period illustrating the marked reduction in accumulated levels of desalkyloxoquazepam with sublingual dosing; • Figure 4 is a graph illustrating the concentration of halazepam (HZ) and N-desalkyl-3-hydroxy-halazepam (ND) in the blood over 96 hours following a single sublingual dose (SL) or per oral swallowed dose (PO) of halazepam in a 20 mg standard tablet. • Figure 5 is a graph illustrating the concentration of halazepam (HZ) and N-desalkyl-3-hydroxy-halazepam (ND) in the blood over 240 hours following a single sublingual dose (SL) or per oral swallowed (PO) of halazepam in a 20 mg standard tablet; and • Figure 6 is a flow chart of the method of the present invention.
This change in concentrations for the two compounds can be seen with reference to Figure 1 and Figure 2 of the drawings where the differences in the parent compound Q and the metabolite DOQ for both the oral and sublingual dosing is shown. In Figure 3, by use of standard mutliple Q dose simulations, the differences in accumulation of Q and DOQ for sublingual versus oral dosing over 15 days is shown. With chronic dosing it is readily apparent that after 15 days the DOQ level, following oral administration, has reached levels that are associated with the threshold for impairing ataxic and incoordination affects (especially if larger doses are given).
In Table 1 and Table 2, set forth below, the average pharmacokinetic parameters for both Q and DOQ for both oral and sublingual routes of administration are set forth: TABLE I

[2] = Concentration in blood after a single sublingual or per oral swallowed dose of halazepam 20 mg standard tablet; assay type: in vivo, volunteer adult humans; settings: sublingual administration of halazepam versus oral
Protocol: Test results will now be described. Testing was carried out using volunteer adult humans. Standard tablets containing, as active ingredient, solely quazepam or solely halazepam, were used. […]

[3] = quazepam in plasma, oral quazepam 15 mg
[4] = quazepam in plasma, sublingual quazepam 15 mg

Fc1ccccc1C1=NCC(=S)N(CC(F)(F)F)c2ccc(Cl)cc21 [quazepam, 7-chloro-1-(2,2,2-trifluorethyl)-5-(o-fluorophenyl)-1,3-dihydro-2H-1,4-benzodiazepine-2-thione]
half-life ([1]; quazepam in plasma, absorption half-life, sublingual quazepam 15 mg, read-out: t1/2 Ka (converted)): 0.27 ± 0.1 h | half-life ([1]; quazepam in plasma, rapid distribution half-life, sublingual quazepam 15 mg, read-out: t1/2 λ₁ (converted)): 1.44 ± 0.45 h | half-life ([1]; quazepam in plasma, terminal elimination half-life, sublingual quazepam 15 mg, read-out: t1/2 λ₂ (converted)): 27.7 ± 7.18 h | half-life ([1]; po, quazepam in plasma, absorption half-life, oral quazepam 15 mg, read-out: t1/2 Ka (converted)): 0.77 ± 0.23 h | half-life ([1]; po, quazepam in plasma, rapid distribution half-life, oral quazepam 15 mg, read-out: t1/2 λ₁ (converted)): 1.73 ± 0.65 h | half-life ([1]; po, quazepam in plasma, terminal elimination half-life, oral quazepam 15 mg, read-out: t1/2 λ₂ (converted)): 24.6 ± 8.35 h | Tmax [1, 3]: 2.57 ± 1.69 h | Tmax [1, 4]: 0.78 ± 0.31 h | Cmax ([1]; oral quazepam 15 mg): 26.7 ± 6.83 ng/mL | Cmax ([1]; sublingual quazepam 15 mg): 42.4 ± 10.4 ng/mL | AUC ([1]; oral quazepam 15 mg): 473 ± 239 ng·h/mL | AUC ([1]; sublingual quazepam 15 mg): 1460 ± 299 ng·h/mL | CL/F ([1]; oral quazepam 15 mg): 37.56 ± 16.89 h⁻¹ | CL/F ([1]; sublingual quazepam 15 mg): 8.78 ± 5.25 h⁻¹ | Lag time [1, 3]: 0.52 ± 0.28 h | Lag time [1, 4]: 0.18 ± 0.05 h | increase of availability of quazepam ([1]; sublingual dosing in contrast to oral dosing of quazepam): about 60%

O=C1CN=C(c2ccccc2F)c2cc(Cl)ccc2N1 [N-DESALKYL-2-OXOQUAZEPAM, N-desalkyl-2-oxoquazepam]
Lag time ([1]; metabolite N-desalkyl-2-oxoquazepam in plasma, oral quazepam 15 mg): 0.66 ± 0.32 h | Lag time ([1]; metabolite N-desalkyl-2-oxoquazepam in plasma, sublingual quazepam 15 mg): 1.74 ± 0.86 h | DOQ level relative to oral quazepam administration levels ([1]; sublingual dosing of quazepam versus oral): about one-half

O=C1Nc2ccc(Cl)cc2C(c2ccccc2)=NC1O (stereo not shown) [N-dealkyl-hydroxy-halazepam, N-desalkyl-3-hydroxy-halazepam]
level of metabolite N-dealkyl-hydroxy-halazepam [2]: reducing

O=C1CN=C(c2ccccc2)c2cc(Cl)ccc2N1CC(F)(F)F [halazepam, 7-chloro-1,3 dihydro-5-phenyl-1-1-(2,2,2-trifluoroethyl)-2H-1,4-benzodiazepine-2-one]
availability of halazepam [2]: significantly increased
